Data from ChEMBL document CHEMBL1201861, “Genomics of Drug Sensitity in Cancer screening data, Wellcome Trust Sanger Institute”.
Where a name gives a salt, the structure may show the parent alone.

Key:
Experiment in all cases: cells
MPP-89 = format: functional, cell-based, Homo sapiens; settings: Homo sapiens, MPP-89;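 further: growth inhibition of human MPP-89 cells, read out with a cell viability assay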
Description: SANGER: Inhibition of human MPP-89 cell growth in a cell viability assay.

U-251 = format: functional, cell-based, Homo sapiens; settings: Homo sapiens, U-251;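 further: growth inhibition of human U-251 cells, read out through a cell viability assay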
Description: SANGER: Inhibition of human U251 cell growth in a cell viability assay.

PF-382 = format: functional, cell-based, Homo sapiens; settings: Homo sapiens, PF-382
Description: SANGER: Inhibition of human PF-382 cell growth in a cell viability assay.

EW-18 = format: functional, cell-based, Homo sapiens; settings: Homo sapiens, EW-18;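 further: growth inhibition of EW-18 cells, read out by a cell viability assay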
Description: SANGER: Inhibition of human EW-18 cell growth in a cell viability assay.

SJRH30 = format: functional, cell-based, Homo sapiens; settings: Homo sapiens, SJRH30;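 further: growth inhibition of human SJRH30 cells, read out with a cell viability assay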
Description: SANGER: Inhibition of human SJRH30 cell growth in a cell viability assay.

DJM-1 = format: functional, cell-based, Homo sapiens; settings: Homo sapiens, DJM-1;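 further: growth inhibition of human DJM-1 cells, read out by a cell viability assay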
Description: SANGER: Inhibition of human DJM-1 cell growth in a cell viability assay.

MDA-MB-134-VI = format: functional, cell-based, Homo sapiens; settings: Homo sapiens, MDA-MB-134-VI
Description: SANGER: Inhibition of human MDA-MB-134-VI cell growth in a cell viability assay.

RCM-1 = format: functional, cell-based, Homo sapiens; settings: Homo sapiens, RCM-1;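 further: growth inhibition of the RCM-1 line, determined with a cell viability readout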
Description: SANGER: Inhibition of human RCM-1 cell growth in a cell viability assay.

MHH-NB-11 = format: functional, cell-based, Homo sapiens; settings: Homo sapiens, MHH-NB-11;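 further: growth inhibition of human MHH-NB-11 cells, read out by a cell viability assay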
Description: SANGER: Inhibition of human MHH-NB-11 cell growth in a cell viability assay.

SF-126 = format: functional, cell-based, Homo sapiens; settings: Homo sapiens, SF-126;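 further: growth inhibition of human SF126 cells, read out with a cell viability assay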
Description: SANGER: Inhibition of human SF126 cell growth in a cell viability assay.

CAMA-1 = format: functional, cell-based, Homo sapiens; settings: Homo sapiens, CAMA-1;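 further: growth inhibition of CAMA-1 cells, read out with a cell viability assay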
Description: SANGER: Inhibition of human CAMA-1 cell growth in a cell viability assay.

PA-1 = format: functional, cell-based, Homo sapiens; settings: Homo sapiens, PA-1;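 further: IC50 for suppression of PA-1 cell proliferation, determined with a cell viability read-out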
Description: SANGER: Inhibition of human PA-1 cell growth in a cell viability assay.

U-87 MG = format: functional, cell-based, Homo sapiens, U-87MG ATCC; settings: Homo sapiens, U-87 MG;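 further: growth inhibition of the cells measured with a viability assay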
Description: SANGER: Inhibition of human U-87-MG cell growth in a cell viability assay.

EVSA-T = format: functional, cell-based, Homo sapiens; settings: Homo sapiens, EVSA-T;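 further: growth inhibition of EVSA-T cells, read out with a cell viability assay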
Description: SANGER: Inhibition of human EVSA-T cell growth in a cell viability assay.

ETK-1 = format: functional, cell-based, Homo sapiens; settings: Homo sapiens, ETK-1;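 further: growth inhibition of human ETK-1 cells, read out with a cell viability assay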
Description: SANGER: Inhibition of human ETK-1 cell growth in a cell viability assay.

COR-L23 = format: functional, cell-based, Homo sapiens; settings: Homo sapiens, COR-L23;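 further: cell viability assay measuring how strongly compounds suppress growth of COR-L23 cells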
Description: SANGER: Inhibition of human COR-L23 cell growth in a cell viability assay.

DMS-153 = format: functional, cell-based, Homo sapiens; settings: Homo sapiens, DMS-153
Description: SANGER: Inhibition of human DMS-153 cell growth in a cell viability assay.

SJSA-1 = format: functional, cell-based, Homo sapiens; settings: Homo sapiens, SJSA-1;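 further: growth inhibition of human SJSA-1 cells, read out through a cell viability measurement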
Description: SANGER: Inhibition of human SJSA-1 cell growth in a cell viability assay.

MFM-223 = format: functional, cell-based, Homo sapiens; settings: Homo sapiens, MFM-223
Description: SANGER: Inhibition of human MFM-223 cell growth in a cell viability assay.

KM12 = format: functional, cell-based, Homo sapiens; settings: Homo sapiens, KM12;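 further: KM12 cell growth inhibition, read out with a cell viability assay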
Description: SANGER: Inhibition of human KM12 cell growth in a cell viability assay.

CHP-212 = format: functional, cell-based, Homo sapiens; settings: Homo sapiens, CHP-212
Description: SANGER: Inhibition of human CHP-212 cell growth in a cell viability assay.

CTB-1 = format: functional, cell-based, Homo sapiens; settings: Homo sapiens, CTB-1
Description: SANGER: Inhibition of human CTB-1 cell growth in a cell viability assay.

CAL-85-1 = format: functional, cell-based, Homo sapiens; settings: Homo sapiens, CAL-85-1;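 further: growth inhibition of human CAL-85-1 cells, read out with a cell viability assay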
Description: SANGER: Inhibition of human CAL-85-1 cell growth in a cell viability assay.

D-263MG = format: functional, cell-based, Homo sapiens; settings: Homo sapiens, D-263MG
Description: SANGER: Inhibition of human D-263MG cell growth in a cell viability assay.

RS4-11 = format: functional, cell-based, Homo sapiens; settings: Homo sapiens, RS4-11;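 further: growth inhibition of RS4-11 cells, read out by a cell viability assay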
Description: SANGER: Inhibition of human RS4-11 cell growth in a cell viability assay.

Ca-Ski = format: functional, cell-based, Homo sapiens; settings: Homo sapiens, Ca-Ski;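 further: cell viability assay measuring inhibition of Ca-Ski cell growth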
Description: SANGER: Inhibition of human Ca-Ski cell growth in a cell viability assay.

SK-MEL-2 = format: functional, cell-based, Homo sapiens; settings: Homo sapiens, SK-MEL-2;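 further: growth inhibition of human SK-MEL-2 cells measured with a cell viability assay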
Description: SANGER: Inhibition of human SK-MEL-2 cell growth in a cell viability assay.

KMS-12-PE = format: functional, cell-based, Homo sapiens; settings: Homo sapiens, KMS-12-PE;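 further: growth inhibition of human KMS-12-PE cells, measured with a cell viability assay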
Description: SANGER: Inhibition of human KMS-12-PE cell growth in a cell viability assay.

U-698-M = format: functional, cell-based, Homo sapiens; settings: Homo sapiens, U-698-M
Description: SANGER: Inhibition of human U-698-M cell growth in a cell viability assay.

BCPAP = format: functional, cell-based, Homo sapiens; settings: Homo sapiens, BCPAP;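 further: growth inhibition of BCPAP cells, read out in a cell viability assay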
Description: SANGER: Inhibition of human BCPAP cell growth in a cell viability assay.

MC-CAR = format: functional, cell-based, Homo sapiens; settings: Homo sapiens, MC-CAR;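 further: growth inhibition of the human MC-CAR cell line, read out by a cell viability assay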
Description: SANGER: Inhibition of human MC-CAR cell growth in a cell viability assay.

A-431 = format: functional, cell-based, Homo sapiens; settings: Homo sapiens, A-431;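 further: growth inhibition of A-431 cells, determined with a cell viability read-out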
Description: SANGER: Inhibition of human A431 cell growth in a cell viability assay.

IMR-5 = format: functional, cell-based, Homo sapiens; settings: Homo sapiens, IMR-5;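 further: growth inhibition of human IMR-5 cells, read out with a cell viability assay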
Description: SANGER: Inhibition of human IMR-5 cell growth in a cell viability assay.

NCI-H1522 = format: functional, cell-based, Homo sapiens; settings: Homo sapiens, NCI-H1522;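 further: growth inhibition of NCI-H1522 cells, read out with a cell viability assay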
Description: SANGER: Inhibition of human NCI-H1522 cell growth in a cell viability assay.

UACC-812 = format: functional, cell-based, Homo sapiens; settings: Homo sapiens, UACC-812
Description: SANGER: Inhibition of human UACC-812 cell growth in a cell viability assay.

RT-112 = format: functional, cell-based, Homo sapiens; settings: Homo sapiens, RT-112
Description: SANGER: Inhibition of human RT-112 cell growth in a cell viability assay.

NY = format: functional, cell-based, Homo sapiens; settings: Homo sapiens, NY
Description: SANGER: Inhibition of human NY cell growth in a cell viability assay.

CAL-12T = format: functional, cell-based, Homo sapiens; settings: Homo sapiens, CAL-12T;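 further: growth inhibition of human CAL-12T cells, read out with a cell viability assay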
Description: SANGER: Inhibition of human CAL-12T cell growth in a cell viability assay.

Panc1005 = format: functional, cell-based, Homo sapiens; settings: Homo sapiens, Panc1005;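 further: growth inhibition of human PANC-10-05 cells, measured by a cell viability assay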
Description: SANGER: Inhibition of human PANC-10-05 cell growth in a cell viability assay.

SIMA = format: functional, cell-based, Homo sapiens; settings: Homo sapiens, SIMA;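 further: growth inhibition of SIMA cells, measured with a cell viability readout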
Description: SANGER: Inhibition of human SIMA cell growth in a cell viability assay.

SK-MEL3 = format: functional, cell-based, Homo sapiens, SK-MEL-3; settings: Homo sapiens, SK-MEL3;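 further: growth inhibition of human SK-MEL-3 cells, read out with a cell viability assay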
Description: SANGER: Inhibition of human SK-MEL-3 cell growth in a cell viability assay.

A2058 = format: functional, cell-based, Homo sapiens; settings: Homo sapiens, A2058;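 further: reduction of A2058 cell growth, read out with a viability assay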
Description: SANGER: Inhibition of human A2058 cell growth in a cell viability assay.

NCI-H2087 = format: functional, cell-based, Homo sapiens; settings: Homo sapiens, NCI-H2087;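 further: growth inhibition determined with a cell viability readout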
Description: SANGER: Inhibition of human NCI-H2087 cell growth in a cell viability assay.

SW1783 = format: functional, cell-based, Homo sapiens; settings: Homo sapiens, SW1783;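 further: cell growth inhibition measured with a viability assay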
Description: SANGER: Inhibition of human SW1783 cell growth in a cell viability assay.

MFH-ino = format: functional, cell-based, Homo sapiens; settings: Homo sapiens, MFH-ino;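 further: growth inhibition of human MFH-ino cells, read out by a cell viability assay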
Description: SANGER: Inhibition of human MFH-ino cell growth in a cell viability assay.

HCC1569 = format: functional, cell-based, Homo sapiens; settings: Homo sapiens, HCC1569;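 further: growth inhibition of human HCC1569 cells, read out with a cell viability assay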
Description: SANGER: Inhibition of human HCC1569 cell growth in a cell viability assay.

MHH-PREB-1 = format: functional, cell-based, Homo sapiens; settings: Homo sapiens, MHH-PREB-1;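 further: cell viability assay measuring inhibition of proliferation of human MHH-PREB-1 cells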
Description: SANGER: Inhibition of human MHH-PREB-1 cell growth in a cell viability assay.

REH = format: functional, cell-based, Homo sapiens; settings: Homo sapiens, REH;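 further: growth inhibition of REH cells determined with a cell viability read-out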
Description: SANGER: Inhibition of human REH cell growth in a cell viability assay.

For `O=C(O)c1ccc(-c2c[nH]c3ncc(-c4ccccc4)cc23)cc1C1CCCC1` [GSK-650394], which IC50 (MPP-89) is on record?
The IC50 was 9.27 µM.

And the IC50 (U-251)?
The IC50 was greater than 16 µM.

What about the IC50 (PF-382) of the same compound?
The IC50 was greater than 16 µM.

And the IC50 (EW-18)?
The IC50 was greater than 16 µM.

And the IC50 (SJRH30)?
The IC50 was greater than 16 µM.

What about the IC50 (DJM-1) of the same compound?
Its IC50 is greater than 16 µM.

What about the IC50 (MDA-MB-134-VI) of the same compound?
The IC50 was greater than 16 µM.

What about the IC50 (RCM-1) of the same compound?
The IC50 was greater than 16 µM.

And the IC50 (MHH-NB-11)?
The IC50 was greater than 16 µM.

What about the IC50 (SF-126) of the same compound?
Its IC50 is 8.8 µM.

What about the IC50 (CAMA-1) of the same compound?
The IC50 was greater than 16 µM.

And the IC50 (PA-1)?
The IC50 was 3.33 µM.

And the IC50 (U-87 MG)?
The IC50 was greater than 16 µM.

What about the IC50 (EVSA-T) of the same compound?
Its IC50 is greater than 16 µM.

What about the IC50 (ETK-1) of the same compound?
Its IC50 is 10.1 µM.

What about the IC50 (COR-L23) of the same compound?
The IC50 was 4.76 µM.

And the IC50 (DMS-153)?
The IC50 was greater than 16 µM.

What about the IC50 (SJSA-1) of the same compound?
Its IC50 is 15.1 µM.

What about the IC50 (MFM-223) of the same compound?
Its IC50 is greater than 16 µM.

What about the IC50 (KM12) of the same compound?
Its IC50 is 0.851 µM.

What about the IC50 (CHP-212) of the same compound?
Its IC50 is greater than 16 µM.

What about the IC50 (CTB-1) of the same compound?
The IC50 was greater than 16 µM.

What about the IC50 (CAL-85-1) of the same compound?
Its IC50 is greater than 16 µM.

And the IC50 (D-263MG)?
The IC50 was 13.7 µM.

And the IC50 (RS4-11)?
Its IC50 is 8.96 µM.

And the IC50 (Ca-Ski)?
Its IC50 is greater than 16 µM.

What about the IC50 (SK-MEL-2) of the same compound?
The IC50 was greater than 16 µM.

What about the IC50 (KMS-12-PE) of the same compound?
Its IC50 is greater than 16 µM.

And the IC50 (U-698-M)?
Its IC50 is greater than 16 µM.

What about the IC50 (BCPAP) of the same compound?
Its IC50 is 13 µM.

What about the IC50 (MC-CAR) of the same compound?
Its IC50 is greater than 16 µM.

And the IC50 (A-431)?
The IC50 was 1.86 µM.

What about the IC50 (IMR-5) of the same compound?
Its IC50 is 9.19 µM.

And the IC50 (NCI-H1522)?
The IC50 was greater than 16 µM.

What about the IC50 (UACC-812) of the same compound?
The IC50 was greater than 16 µM.

And the IC50 (RT-112)?
Its IC50 is 1.03 µM.

What about the IC50 (NY) of the same compound?
Its IC50 is greater than 16 µM.

What about the IC50 (CAL-12T) of the same compound?
The IC50 was 2.71 µM.

What about the IC50 (Panc1005) of the same compound?
The IC50 was 11.4 µM.

What about the IC50 (SIMA) of the same compound?
Its IC50 is greater than 16 µM.

What about the IC50 (SK-MEL3) of the same compound?
The IC50 was greater than 16 µM.

And the IC50 (A2058)?
The IC50 was 13.5 µM.

And the IC50 (NCI-H2087)?
The IC50 was 13.4 µM.

And the IC50 (SW1783)?
Its IC50 is greater than 16 µM.

And the IC50 (MFH-ino)?
Its IC50 is 1.99 µM.

And the IC50 (HCC1569)?
Its IC50 is greater than 16 µM.

What about the IC50 (MHH-PREB-1) of the same compound?
The IC50 was greater than 16 µM.

What about the IC50 (REH) of the same compound?
Its IC50 is greater than 16 µM.

What does the source list for `COC1=CC(c2cc3ccccc3[nH]2)=N/C1=C\c1[nH]c(C)cc1C` [OBATOCLAX MESYLATE]?
IC50 (MPP-89): 0.463 µM; IC50 (U-251): 0.335 µM; IC50 (PF-382): 0.0494 µM; IC50 (EW-18): 0.13 µM; IC50 (SJRH30): 0.321 µM; IC50 (DJM-1): 0.175 µM; IC50 (MDA-MB-134-VI): 4.03 µM; IC50 (RCM-1): 0.572 µM; IC50 (MHH-NB-11): 3.44 µM; IC50 (SF-126): 0.273 µM; IC50 (CAMA-1): 0.436 µM; IC50 (PA-1): 0.0877 µM; IC50 (U-87 MG): 2.29 µM; IC50 (EVSA-T): 0.817 µM; IC50 (ETK-1): 0.0567 µM; IC50 (COR-L23): 0.0613 µM; IC50 (DMS-153): 2.17 µM; IC50 (SJSA-1): 0.147 µM; IC50 (MFM-223): 3.37 µM; IC50 (KM12): 0.318 µM; IC50 (CHP-212): 0.081 µM; IC50 (CTB-1): 0.0759 µM; IC50 (CAL-85-1): 0.0183 µM; IC50 (D-263MG): 3.15 µM; IC50 (RS4-11): 0.085 µM; IC50 (Ca-Ski): 0.405 µM; IC50 (SK-MEL-2): 0.157 µM; IC50 (KMS-12-PE): 5.35 µM; IC50 (U-698-M): 0.0941 µM; IC50 (BCPAP): 0.0589 µM; IC50 (MC-CAR): 0.0236 µM; IC50 (A-431): 0.088 µM; IC50 (IMR-5): 0.0324 µM; IC50 (NCI-H1522): 2.02 µM; IC50 (UACC-812): 11.7 µM; IC50 (RT-112): 0.666 µM; IC50 (NY): 0.118 µM; IC50 (CAL-12T): < 0.0625 µM; IC50 (Panc1005): 0.115 µM; IC50 (SIMA): 0.494 µM; IC50 (SK-MEL3): < 0.0625 µM; IC50 (A2058): 0.107 µM; IC50 (NCI-H2087): 0.13 µM; IC50 (SW1783): 0.193 µM; IC50 (MFH-ino): 0.247 µM; IC50 (HCC1569): 0.018 µM; IC50 (MHH-PREB-1): < 0.0625 µM; IC50 (REH): 0.0464 µM
